What was measured:
[1] = test system: male stress-derived axillary odor; experiment: Cross-adaptation of male stress-derived axillary odor (odor panel, magnitude estimation of perceived intensity); assay type: in vivo, human; conditions: for Magnitude of Reduction of Intensity of Male Stress-Derived Odor (MSDO), Males: male stress-derived odor perceived by men; for Magnitude of Reduction of Intensity of Male Stress-Derived Odor (MSDO), Females: male stress-derived odor perceived by women
Source text: (§1) The procedure relies upon an individual constantly sniffing an adapting agent, such as a fragrance, and occasionally a test odorant. Perceived intensity of the test odorant is obtained by using psychophysical, magnitude-estimation procedures. These perceived intensities are obtained every 30 seconds over the test period, and are then compared with baseline perceived intensities obtained before the individual began sniffing the adapting agent. Throughout the testing we observe adaptation to the adapting agent. Results during trials with an inserted test odorant, such as the axillary odor used here, are believed to be reasonably predictive. If the perceived intensity of the test odorant decreases during the test, then the adapting agent cross-adapts the test odorant and becomes a cross-adapting agent. If the cross-adapting agent is itself not offensive, then the cross-adapting agent becomes a candidate for use in formulations in consumer products to ameliorate malodors, such as axillary odor or fecal/urine odors, and odors related to the female menstrual cycle.
(§2) Collection of secretions: Apocrine secretions obtained under stressed conditions provided the axillary odor that was used as the test odorant to evaluate the effectiveness of various adapting agents. Secretions were obtained from males (ages 20 to 60 years) and females (ages 20 to 40 years) in good health. […] Volunteers prepared their axillae for collection of apocrine secretions by refraining from deodorant use for 3 days and shaving their axillae the morning of the collection day.
(§3) Volunteers were rested in a supine position. The axillary regions were washed with isopropanol-soaked pads and injected intradermally with 1:10,000 adrenalin (in physiologic saline). This injection stimulated the secretion of apocrine gland secretions, which were collected in 10 μl pipettes, passed into 0.25 ml Eppendorf tubes, and stored on ice (or frozen for longer storage). The amount of secretion collected varied greatly with the individual subject (≦10 μl). The apocrine secretions from each volunteer were combined by consecutively washing each Eppendorf tube with 2×300 μl of doubly distilled water. This aqueous-apocrine fluid was transferred to a 5 ml round-bottomed flask for hydrolysis. X-N. Zeng, J. J. Leyden, J. G. Brand, A. I. Spielman, K. J. McGinley, G. Preti, An Investigation of Human Apocrine Gland Secretion for Axillary Odor Precursors, 18 J. Chem. Ecol. 1039-1055 (1992); X-N. Zeng, J. J. Leyden, A. I. Spielman and G. Preti Analysis of the characteristic human female axillary odors: Qualitative comparison to males. 22 J. Chem. Ecol. 237-257 (1996).
(§4) Production of odor: To produce quantities of stress-derived axillary odor for testing purposes, we hydrolyzed the apocrine secretion. The aqueous solution was refluxed for 20 min with 0.5 ml, 5% aqueous sodium hydroxide under a stream of nitrogen. The mixture was allowed to cool to room temperature, and then it was cooled in ice prior to being acidified with 6 N HCl to pH 2. The resulting axillary odor developed in the reaction mixture upon acidification was used as the test odorant. The axillary odors generated by this in vitro technique are analogous to the malodors produced by stressed individuals.
Sixteen (16) individuals (8 of each gender) served on an odor panel. Subjects ranged in age from 22 to 55 years (mean 32.7±10.6 s.d.), were not pregnant (by verbal report), and were all non-smokers. All panel members were screened for adequate use of magnitude estimation (some people have difficulties maintaining a ratio scale, i.e., when an odorant is half as strong as the previous, these people fail to provide a number that is half the previous estimate) and further trained in its use during 2-3 training sessions. All 16 subjects were tested with samples of male malodor compared to each of the potential cross-adapting agents. […]

[2] = test system: female stress-derived axillary odor; experiment: Cross-adaptation of female stress-derived axillary odor (odor panel, magnitude estimation of perceived intensity); assay type: in vivo, human; conditions: for Magnitude of Reduction of Intensity of Female Stress-Derived Odor (FSDO), Males: female stress-derived odor perceived by men; for Magnitude of Reduction of Intensity of Female Stress-Derived Odor (FSDO), Females: female stress-derived odor perceived by women
Source text: as §1, §2, §3, §4
A separate panel of 24 subjects (12 males and 12 females) tested samples of female stress-derived axillary odor with potential cross-adapting agents, some of which were not included in Example 1 above. Some of the subjects assessing the effectiveness of cross-adaptation of male stress-derived axillary odor were also used in the experiment with female secretions. However, these two experiments were treated as independent events. All panel members were screened for adequate use of magnitude estimation and further trained in its use during two to three training sessions. […]

[3] = listed as E-isomer 3-methyl-2-pentenoic acid ethyl ester
Note: key: best: Best = Superior Cross-Adaptation; good: Good = Adequate Cross-Adaptation; poor: Poor = Ineffective Cross-Adaptation.

Molecule	Magnitude of Reduction of Intensity of Male Stress-Derived Odor (MSDO), Males [1]	Magnitude of Reduction of Intensity of Male Stress-Derived Odor (MSDO), Females [1]	Magnitude of Reduction of Intensity of Female Stress-Derived Odor (FSDO), Males [2]	Magnitude of Reduction of Intensity of Female Stress-Derived Odor (FSDO), Females [2]	Magnitude of Reduction of Intensity of Male Stress-Derived Odor (MSDO), Males [1, 3]	Magnitude of Reduction of Intensity of Male Stress-Derived Odor (MSDO), Females [1, 3]	Magnitude of Reduction of Intensity of Male Stress-Derived Odor (MSDO), Males ([1]; listed as Z-isomer 3-methyl-2-pentenoic acid ethyl ester)
CCCCCC(C)=CC(=O)OCC (single isomer, unassigned) [E-, Z-isomers (3:1) of 3-methyl-2-octenoic acid ethyl esters, 3-methyl-2-octenoic acid ethyl esters]	best	best	best	best	–	–	–
CCOC(=O)C=C(C)CC (single isomer, unassigned) [E-isomer of 3-methyl-2-pentenoic acid ethyl ester, 3-methyl-2-pentenoic acid ethyl ester]	good	good	poor	poor	good	good	–
CCOC(=O)C=C(C)CC (single isomer, unassigned) [Z-isomer of 3-methyl-2-pentenoic acid ethyl ester, 3-methyl-2-pentenoic acid ethyl ester]	best	poor	poor	poor	–	–	best
CC(=O)OC1CCCCC1C(C)(C)C (centres unmarked) [Agrumex, 2-tert-butyl cyclohexyl acetate]	good	poor	poor	best	–	–	–
COc1ccc(C=O)cc1 [Anisic Aldehyde, 4-methoxybenzaldehyde]	–	–	best	good	–	–	–
Cc1ccc2c(c1)OCC(=O)CO2 [Calone 1951, 7-methyl-314-dihydro-2H-1,5-benzodioxepin-3-one]	–	–	good	good	–	–	–
COC(C=C(C)CCC=C(C)C)OC [Citrylal, Octa-2,6-dien; 1,1-dimethoxy-3-7-dimethyl]	best	good	–	–	–	–	–
C/C=C/C(=O)OC(C)C1CCCCC1 (centres unmarked) [Datilat, Cyclohexyl methyl carbinol crotonate]	poor	poor	–	–	–	–	–
CCCCCC(C)=CC(=O)OCC [E-isomer of 3-methyl-2-octenoic acid ethyl ester, 3-methyl-2-octenoic acid ethyl ester]	–	–	good	poor	–	–	–
CCOc1cc(C=O)ccc1O [Ethyl Vanillin, 3-Ethoxy-4-hydroxybenzaldehyde]	–	–	best	poor	–	–	–
COC(=O)c1c(C)cc(O)c(C)c1O [Evernyl, methyl 2,4-dihydroxy-3,6-dimethylbenzoate]	–	–	poor	good	–	–	–
O=C1CCCC=CCCCCCCCCCC1 [GLOBANONE ®, cyclohexadecen-5-one-1]	–	–	good	poor	–	–	–
CC(C=O)Cc1ccc(C(C)(C)C)cc1 (stereo not drawn) [Lilial, 4-(1,1-dimethylethyl)-alpha-methylbenzenepropanal]	–	–	good	poor	–	–	–
CC(C)(O)CCCC1=CCC(C=O)CC1 (centres unmarked) [Lyral, 4-(4-hydroxy-4-methylpentyl)-3-cyclohexenE-1-carboxaldehyde]	–	–	good	poor	–	–	–
Cc1cccc(CC(C)(C)CO)c1 [MAJANTOL ®, 2,2-dimethyl-3-(methylphenyl)propanol]	–	–	good	poor	–	–	–
CC(C)C1CCC(C(C)O)CC1 (centres unmarked) [Mugetanol, 1-(4-isopropylcyclohexyl)ethanol]	good	poor	–	–	–	–	–
CC(=O)c1oc2ccccc2c1C [Nerolione, 1-(3-bethyl-2-benzofuranyl)-ethanone]	good	poor	–	–	–	–	–
CCC(C)(O)CCCC(C)C (centres unmarked) [Tetrahydro Linalool, 3,7-Dimethyloctan-3-ol]	best	poor	–	–	–	–	–
CC(O)C(C)CC1C(C)CCCC1(C)C (centres unmarked) [Timbranol, Isomethyltetrahydroionol]	poor	poor	–	–	–	–	–
CC(=O)c1cc2c(cc1C)C(C)(C)C(C)CC2(C)C (centres unmarked) [Tonalide, 7-Acetyl-1,1,3,4,4,6-hexamethyltetralin]	good	poor	–	–	–	–	–
CC=CC(=O)C1C(C)C=CCC1(C)C (centres unmarked) [Δ-Damascone, 1-(2,6,6-trimethyl-3-cyclohexen-1-yl)-2-buten-1-one]	best	good	–	–	–	–	–
CC(=O)C=CC1C(C)=CCCC1(C)C (stereo not drawn) [α-ionone, 4-(2,2,6-trimethyl-2cyclohexen-1-yl)-3-buten-2-one]	–	–	good	good	–	–	–
alpha-n-methylionone [Isoraldeine 70]	–	–	best	poor	–	–	–
isobornyl cyclohexanol	good	poor	–	–	–	–	–
